Experimental data from PMC12169608, “Peptidomimetic Phenoxymethyl Ketone Warheads as Potent Dual-Mode Inhibitors against SARS-CoV‑2 M^pro and Cathepsin” (Journal of Medicinal Chemistry, 2025).
≈ marks a conversion by molar mass, not a printed value. Read-outs that look alike come from different tables or passages of the source.

How the values were obtained:
Cathepsin D = target: T1, Cathepsin D (Homo sapiens, UniProt P07339); experiment: Protease panel: Cathepsin D; assay type: biochemical
T1 construct: Human liver; tissue Eurofins Discovery (assay service); host or cells: human liver
T1 sequence (P07339 65-412): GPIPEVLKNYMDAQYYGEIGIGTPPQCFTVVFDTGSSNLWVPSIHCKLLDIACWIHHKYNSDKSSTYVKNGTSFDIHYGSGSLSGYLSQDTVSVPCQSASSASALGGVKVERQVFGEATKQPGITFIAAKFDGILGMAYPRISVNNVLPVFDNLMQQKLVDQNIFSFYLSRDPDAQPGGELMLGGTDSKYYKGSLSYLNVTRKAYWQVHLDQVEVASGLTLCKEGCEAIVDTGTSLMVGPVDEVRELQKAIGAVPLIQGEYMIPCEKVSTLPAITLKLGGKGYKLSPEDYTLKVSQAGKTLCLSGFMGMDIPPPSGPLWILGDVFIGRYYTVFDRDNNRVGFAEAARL

Calpain-1 = target: T2, Calpain-1 (Homo sapiens, UniProt P07384); experiment: Protease panel: Calpain-1; assay type: biochemical
T2 construct: erythrocytes; tissue Eurofins Discovery (assay service); host or cells: human erythrocytes
T2 sequence (P07384 1-714): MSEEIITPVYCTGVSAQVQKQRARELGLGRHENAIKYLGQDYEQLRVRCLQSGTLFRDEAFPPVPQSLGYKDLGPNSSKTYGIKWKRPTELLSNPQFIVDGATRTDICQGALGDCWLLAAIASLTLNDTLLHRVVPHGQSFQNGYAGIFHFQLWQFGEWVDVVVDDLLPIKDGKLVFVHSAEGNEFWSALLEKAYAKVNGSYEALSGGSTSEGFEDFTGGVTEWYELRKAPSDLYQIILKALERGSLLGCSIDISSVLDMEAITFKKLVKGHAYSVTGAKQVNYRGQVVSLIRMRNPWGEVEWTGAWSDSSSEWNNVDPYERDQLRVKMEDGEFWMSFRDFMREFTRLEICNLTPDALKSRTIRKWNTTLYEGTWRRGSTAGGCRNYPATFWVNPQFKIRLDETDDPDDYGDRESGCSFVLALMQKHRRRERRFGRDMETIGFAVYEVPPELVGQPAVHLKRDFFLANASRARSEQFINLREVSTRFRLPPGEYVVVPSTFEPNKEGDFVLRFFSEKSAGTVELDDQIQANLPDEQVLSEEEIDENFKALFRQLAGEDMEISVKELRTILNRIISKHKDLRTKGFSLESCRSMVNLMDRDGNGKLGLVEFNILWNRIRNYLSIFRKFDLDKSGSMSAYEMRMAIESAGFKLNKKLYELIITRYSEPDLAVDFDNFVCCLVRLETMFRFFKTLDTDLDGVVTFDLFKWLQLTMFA
T2 sequence (P04632 1-268 partner): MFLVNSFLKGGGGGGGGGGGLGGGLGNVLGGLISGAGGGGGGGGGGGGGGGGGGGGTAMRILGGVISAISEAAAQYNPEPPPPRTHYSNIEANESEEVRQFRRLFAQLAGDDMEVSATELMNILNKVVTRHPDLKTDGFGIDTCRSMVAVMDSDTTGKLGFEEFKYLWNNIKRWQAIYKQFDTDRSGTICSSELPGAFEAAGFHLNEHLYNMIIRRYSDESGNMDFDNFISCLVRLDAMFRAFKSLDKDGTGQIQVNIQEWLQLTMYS

[1] = target: human cathepsin B (hCTSB) (Homo sapiens, UniProt P07858); experiment: hCTSB biochemical assay
Caspase 2 = target: T3, Caspase 2 (Homo sapiens, UniProt P42575); experiment: Protease panel: Caspase 2; assay type: biochemical
T3 construct: purchased Eurofins Discovery (assay service); host or cells: E. coli
T3 sequence (P42575 170-325 limits assumed): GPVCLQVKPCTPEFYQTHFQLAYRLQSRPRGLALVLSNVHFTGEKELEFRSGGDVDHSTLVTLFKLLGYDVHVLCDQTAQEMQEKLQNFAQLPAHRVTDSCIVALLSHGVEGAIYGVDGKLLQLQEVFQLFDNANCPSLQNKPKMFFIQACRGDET
T3 sequence (P42575 348-452 limits assumed): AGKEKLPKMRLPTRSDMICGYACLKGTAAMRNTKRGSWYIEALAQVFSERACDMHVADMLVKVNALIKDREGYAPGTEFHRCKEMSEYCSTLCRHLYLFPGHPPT

in vitro [2] = details: hamster, hepatocytes; for hepatocyte CLint at 2 h, 4 µM: CLint (hamster hepatocytes + ritonavir 4:1); for hepatocyte CLint at 2 h, 2 µM: CLint (hamster hepatocytes)
[3] = Human liver microsomal stability; details: microsomes, pH 7.4
[4] = Hamster liver microsomal stability; details: microsomes, pH 7.4
physchem [5] = details: pH 7.4
thrombin = target: T4, thrombin (Homo sapiens, UniProt P00734); experiment: Protease panel: thrombin; assay type: biochemical
T4 construct: preincubated with thrombin (10 nM, Sigma); purchased Sigma-Aldrich

trypsin = experiment: Protease panel: trypsin
in vitro [6] = details: African green monkey
SARS-CoV-2 = experiment: microbe, parasite or virus in culture; assay type: cell-based
[7] = Human hepatocyte stability; details: cryopreserved hepatocytes
physchem [8] = details: pH 7.4; remark: listed apart in the source
in vitro [9] = details: human, hepatocytes
[10] = test system: luciferase-expressing VSV (ΔG) pseudotyped with Spike from SARS-CoV-2; experiment: microbe, parasite or virus in culture; assay type: cell-based; details: Vesicular stomatitis virus, Vero C1008, read-out: Entry reporter assay pEC50 (converted)
hamster CTSL = hamster CTSL (Mesocricetus auratus, UniProt Q812A7); experiment: hamster CTSL biochemical assay
hamster CTSL, sequence (Q812A7 entry or part of it): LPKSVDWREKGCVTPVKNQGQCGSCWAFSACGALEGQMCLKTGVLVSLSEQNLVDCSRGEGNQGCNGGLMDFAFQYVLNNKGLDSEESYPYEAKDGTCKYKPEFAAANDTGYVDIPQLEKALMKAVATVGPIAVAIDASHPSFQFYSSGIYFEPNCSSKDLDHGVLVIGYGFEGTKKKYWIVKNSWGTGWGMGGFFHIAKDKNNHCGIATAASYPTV

[11] = target: T5, human cathepsin L (hCTSL) (Homo sapiens, UniProt P07711); experiment: hCTSL biochemical assay
T5 construct: purchased R&D Systems
T5 sequence (P07711 114-333): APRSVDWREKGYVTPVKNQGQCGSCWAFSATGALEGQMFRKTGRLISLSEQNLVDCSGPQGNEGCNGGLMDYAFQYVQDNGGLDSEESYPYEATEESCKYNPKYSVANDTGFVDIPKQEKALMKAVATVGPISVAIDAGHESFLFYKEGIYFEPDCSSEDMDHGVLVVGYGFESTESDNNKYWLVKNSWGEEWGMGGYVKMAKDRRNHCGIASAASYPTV

[12] = hamster, in vivo, ip, 100 mg/kg
in vitro [13] = details: mouse, plasma, mouse plasma protein binding
in vitro [14] = details: hamster, microsomes, pH 7.4
[15] = target: mouse cathepsin L (mCTSL) (Mus musculus, UniProt P06797); experiment: mCTSL biochemical assay; details: read-out: pIC50 (mouse CTSL) (converted)
mouse cathepsin L (mCTSL), sequence (P06797 114-334): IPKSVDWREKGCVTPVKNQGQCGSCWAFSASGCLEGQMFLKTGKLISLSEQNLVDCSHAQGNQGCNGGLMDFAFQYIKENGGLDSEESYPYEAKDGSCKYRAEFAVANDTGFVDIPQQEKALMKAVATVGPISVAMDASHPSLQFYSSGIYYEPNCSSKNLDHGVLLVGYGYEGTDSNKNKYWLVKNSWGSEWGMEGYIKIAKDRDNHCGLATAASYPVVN

[16] = 3 h, 2 µM
[17] = % remaining at 120 min (hamster hepatocytes, compound/ritonavir 1:1)
[18] = % remaining at 120 min (hamster hepatocytes, compound/ritonavir 2:1)
[19] = CLint (hamster hepatocytes, compound/ritonavir 1:1)
[20] = CLint (hamster hepatocytes, compound/ritonavir 2:1)
[21] = t1/2 (hamster hepatocytes, compound/ritonavir 1:1)
[22] = t1/2 (hamster hepatocytes, compound/ritonavir 2:1)
[23] = Severe acute respiratory syndrome coronavirus 2, Vero C1008, read-out: SARS-CoV-2 CPE reduction assay pEC50 (converted)

| Compound | inhibition at 10 µM (Cathepsin D) [%] | inhibition at 10 µM (Calpain-1) [%] | hCTSB biochemical assay pIC50 [1] | inhibition at 10 µM (Caspase 2) [%] | remaining at 2 h, 1 µM (in vitro [2]; [17]) [%] | remaining at 2 h, 1 µM (in vitro [2]; [18]) [%] | hepatocyte CLint at 2 h, 4 µM (in vitro [2]) [µL/min/1e6 cells] | hepatocyte CLint at 2 h, 2 µM (in vitro [2]) [µL/min/1e6 cells] | hepatocyte CLint at 1 µM (in vitro [2]; [19]) [µL/min/1e6 cells] | hepatocyte CLint at 1 µM (in vitro [2]; [20]) [µL/min/1e6 cells] | half-life at 1 µM (in vitro [2]; [21]) [min] | half-life at 1 µM (in vitro [2]; [22]) [min] | half-life [3] [min] | half-life at 1 µM [4] [min] | logD at 1 h (physchem [5]) | inhibition at 10 µM (thrombin) [%] | Trypsin inhibition at 10 μM (trypsin) [%] | CC50 (in vitro [6]) [nM] | EC50 (SARS-CoV-2; [23]) [nM] | half-life at 2 h, 2 µM [7] [min] | other results |
| --- | --- | --- | --- | --- | --- | --- | --- | --- | --- | --- | --- | --- | --- | --- | --- | --- | --- | --- | --- | --- | --- |
| COc1cccc2[nH]c(C(=O)N[C@@H](Cc3cccc(F)c3)C(=O)N[C@@H](C[C@@H]3CCNC3=O)C(=O)COc3c(F)c(F)c(CO)c(F)c3F)cc12 [compound 1, N-((S)-3-(3-Fluorophenyl)-1-oxo-1-(((S)-3-oxo-1-((S)-2-oxopyrrolidin-3-yl)-4-(2,3,5,6-tetrafluoro-4-(hydroxymethyl)phenoxy)butan-2-yl)amino)propan-2-yl)-4-methoxy-1H-indole-2-carboxamide] | 8 | 3 | 6.36 | 11 | 2.51 | 0.56 | 77.1 | 87.6 | 31.4 | 48.1 | 22.1 | 14.4 | 4.04 | 0.58 | 1.65 | 0.2 ± 1.1 | -3.4 ± 9.0 | > 1000 | 129 | 55.5 | half-life at 2 h, 4 µM (in vitro [2]; t1/2 (hamster hepatocytes + ritonavir 4:1)): 9 min; EC50 (SARS-CoV-2; Severe acute respiratory syndrome coronavirus 2, Vero C1008, read-out: EC50 (CPE)): 130 nM; solubility kinetic at 24 h (physchem [8]): 18 µM (≈ 12.6 µg/mL); hepatocyte CLint at 2 h, 2 µM (in vitro [9]): 12.5 µL/min/1e6 cells; EC50 [10]: 2510 nM; pIC50 (hamster CTSL) (hamster CTSL): 8.34 ± 0.09; hCTSL biochemical assay pIC50 [11]: 7.54; clinical signs upon intraperitoneal dosing [12]: no clinical signs have been observed; fraction unbound at 3 h, 2 µM (in vitro [13]; fraction bound (Fb)): 0.0194; fraction unbound at 3 h, 2 µM (in vitro [13]; fraction unbound (Fu)): 0.0194; microsomal CLint at 1 µM (in vitro [14]): 2370 µL/min/mg; remaining at 1 h, 1 µM (in vitro [14]): 0%; IC50 [15]: 83.2 nM; mouse plasma protein binding, fraction bound (Fb) [16]: 98.06% |
| CC(C)(O)c1c(F)c(F)c(OCC(=O)[C@H](C[C@@H]2CCNC2=O)NC(=O)[C@@H]2[C@@H]3[C@H](CN2C(=O)[C@@H](NC(=O)C(F)(F)F)C(C)(C)C)C3(C)C)c(F)c1F [compound 14, (1R,2S,5S)-3-((S)-3,3-Dimethyl-2-(2,2,2-trifluoroacetamido)butanoyl)-6,6-dimethyl-N-((S)-3-oxo-1-((S)-2-oxopyrrolidin-3-yl)-4-(2,3,5,6-tetrafluoro-4-(2-hydroxypropan-2-yl)phenoxy)butan-2-yl)-3-azabicyclo[3.1.0]hexane-2-carboxamide] | -23 | -7 | < 4.30 | 7 | 28.8 | 4.42 | 44.7 | 62.1 | 9.3 | 25.4 | 74.5 | 27.2 | 35 | 1.73 | 2.52 | 4.1 ± 1.5 | 10.2 ± 3.3 | > 501 | 39.8 | 105 | hCTSB activity (in words) ([1]; biochemical assay): no hCTSL and hCTSB activity was observed; solubility kinetic at 24 h (physchem [8]): 77.2 µM (≈ 57 µg/mL); hepatocyte CLint at 2 h, 2 µM (in vitro [9]): 6.6 µL/min/1e6 cells; EC50 [10]: > 30200 nM; pIC50 (hamster CTSL) (hamster CTSL): 4.67 ± 0.33; hCTSL biochemical assay pIC50 [11]: < 4.30; hCTSL activity (in words) ([11]; biochemical assay): no hCTSL and hCTSB activity was observed; clinical signs upon intraperitoneal dosing ([12]; female, Syrian golden): the animals were found dull and lethargic 15 min up until 45 min postdosing; fraction unbound at 3 h, 2 µM (in vitro [13]; fraction bound (Fb)): 0.0076; fraction unbound at 3 h, 2 µM (in vitro [13]; fraction unbound (Fu)): 0.0076; microsomal CLint at 1 µM (in vitro [14]): 377 µL/min/mg; remaining at 1 h, 1 µM (in vitro [14]): 0.1%; IC50 [15]: > 50100 nM; mouse plasma protein binding, fraction bound (Fb) [16]: 99.24% |
